Reference: ChEMBL document CHEMBL4265942, “Four new antitumor metabolites isolated from a mutant 3-f-31 strain derived from Penicillium purpurogenum G59” (Eur J Med Chem, 2018)

Tests used:
HepG2 = test: Antiproliferative activity against human HepG2 cells assessed as inhibition of cell growth after 72 hrs by sulforhodamine B assay; assay type: functional, cell-based; details: HepG2, 72 h
PANC-1 = test: Antiproliferative activity against human PANC1 cells assessed as inhibition of cell growth after 72 hrs by sulforhodamine B assay; assay type: functional, cell-based; details: PANC-1, 72 h
HCT-116 [1] = test: Antitumor activity against human HCT116 cells xenografted in BALB/c nu/nu mouse assessed as tumor growth inhibition at 20 mg/kg administered peritoneally once daily for 14 days measured 24 hrs post last dose relative to control; assay type: functional; details: read-out: TGI
L929 = test: Cytotoxicity against mouse L929 cells assessed as inhibition of cell growth after 72 hrs by MTT assay; assay type: cell-based; details: L929, 72 h
HeLa = test: Antiproliferative activity against human HeLa cells assessed as inhibition of cell growth after 72 hrs by sulforhodamine B assay; assay type: functional, cell-based
K562 = test: Antiproliferative activity against human K562 cells assessed as inhibition of cell growth after 72 hrs by MTT assay; assay type: functional, cell-based; details: K562, 72 h
HCT-116 [2] = test: Down regulation of AKT expression in human HCT116 cells after 48 hrs by Western blot analysis; assay type: functional, cell-based
HCT-116 [3] = test: Down regulation of HSP90 expression in human HCT116 cells after 48 hrs by Western blot analysis; assay type: functional, cell-based
NCI-H1975 = test: Antiproliferative activity against human NCI-H1975 cells assessed as inhibition of cell growth after 72 hrs by sulforhodamine B assay; assay type: functional, cell-based; details: NCI-H1975, 72 h
SW480 = test: Antiproliferative activity against human SW480 cells assessed as inhibition of cell growth after 72 hrs by sulforhodamine B assay; assay type: functional, cell-based; details: SW480, 72 h
HCT-116 [4] = test: Down regulation of Raf1 expression in human HCT116 cells after 48 hrs by Western blot analysis; assay type: functional, cell-based
HCT-116 [5] = test: Down regulation of phosphorylated STAT3 expression in human HCT116 cells after 48 hrs by Western blot analysis; assay type: functional, cell-based
PC-3 = test: Antiproliferative activity against human PC3 cells assessed as inhibition of cell growth after 72 hrs by sulforhodamine B assay; assay type: functional, cell-based; details: PC-3, 72 h
HL-60 = test: Antiproliferative activity against human HL60 cells assessed as inhibition of cell growth after 72 hrs by MTT assay; assay type: functional, cell-based; details: HL-60, 72 h
HCT-116 [6] = test: Antitumor activity against human HCT116 cells xenografted in BALB/c nu/nu mouse assessed as tumor growth inhibition at 5 mg/kg administered peritoneally once daily for 14 days measured 24 hrs post last dose relative to control; assay type: functional; details: read-out: TGI
Mus musculus [7] = test: Toxicity in BALB/c nu/nu mouse xenografted with human HCT116 cells assessed as spleen index at 5 mg/kg administered peritoneally once daily for 14 days measured 24 hrs post last dose (reference value: 0.41 +/- 0.08%); assay type: organism-based; details: in vivo, ip
HCT-116 [8] = test: Antitumor activity against human HCT116 cells xenografted in BALB/c nu/nu mouse assessed as tumor growth inhibition at 10 mg/kg administered peritoneally once daily for 14 days measured 24 hrs post last dose relative to control; assay type: functional; details: read-out: TGI
MCF7 = test: Antiproliferative activity against human MCF7 cells assessed as inhibition of cell growth after 72 hrs by sulforhodamine B assay; assay type: functional, cell-based; details: MCF7, 72 h
A549 = test: Antiproliferative activity against human A549 cells assessed as inhibition of cell growth after 72 hrs by sulforhodamine B assay; assay type: functional, cell-based; details: A549, 72 h
Mus musculus [9] = test: Toxicity in BALB/c nu/nu mouse xenografted with human HCT116 cells assessed as spleen index at 20 mg/kg administered peritoneally once daily for 14 days measured 24 hrs post last dose (reference value: 0.41 +/- 0.08%); assay type: organism-based; details: in vivo, ip
LS180 = test: Antiproliferative activity against human LS180 cells assessed as inhibition of cell growth after 72 hrs by sulforhodamine B assay; assay type: functional, cell-based; details: LS180, 72 h
Mus musculus [10] = test: Toxicity in BALB/c nu/nu mouse xenografted with human HCT116 cells assessed as spleen index at 10 mg/kg administered peritoneally once daily for 14 days measured 24 hrs post last dose (reference value: 0.41 +/- 0.08%); assay type: organism-based; details: in vivo, ip
HCT-116 [11] = test: Down regulation of survivin expression in human HCT116 cells after 48 hrs by Western blot analysis; assay type: functional, cell-based
BXPC-3 = test: Antiproliferative activity against human BxPC3 cells assessed as inhibition of cell growth after 72 hrs by sulforhodamine B assay; assay type: functional, cell-based; details: BXPC-3, 72 h
HCT-116 [12] = test: Down regulation of STAT3 expression in human HCT116 cells after 48 hrs by Western blot analysis; assay type: functional, cell-based
HCT-116 [13] = test: Down regulation of ERK1/2 expression in human HCT116 cells after 48 hrs by Western blot analysis; assay type: functional, cell-based
HCT-116 [14] = test: Antiproliferative activity against human HCT116 cells assessed as inhibition of cell growth after 72 hrs by sulforhodamine B assay; assay type: functional, cell-based; details: HCT-116, 72 h
HT-29 = test: Antiproliferative activity against human HT-29 cells assessed as inhibition of cell growth after 72 hrs by sulforhodamine B assay; assay type: functional, cell-based; details: HT-29, 72 h

- IC50 (HepG2): 5.21 µM
- IC50 (PANC-1): 4.04 µM
- IC50 (HeLa): 5.09 µM
- IC50 (K562): 4.2 µM
- IC50 (NCI-H1975): 3.75 µM
- IC50 (SW480): 4.64 µM
- IC50 (PC-3): 8.7 µM
- IC50 (HL-60): 4.55 µM
- IC50 (MCF7): 3.73 µM
- IC50 (A549): 10.9 µM
- IC50 (BXPC-3): 5.96 µM
- IC50 (HCT-116 [14]): 1.91 µM
- IC50 (HT-29): 8.4 µM
SMILES: CCCCCC[C@@H](C)C[C@@H](C)/C=C/C(=O)N[C@H]1C[C@@]2(O[C@H]1O)[C@@H]1O[C@@H]1[C@](O)(CC(C)=O)[C@@H]1O[C@@H]12
- inhibition in vivo at 20 mg/kg (HCT-116 [1]): 37.9%
- IC50 (L929): 3.8 µM
- Activity (HCT-116 [2]): Dose-dependent effect
- Activity (HCT-116 [3]): Dose-dependent effect
- Activity (HCT-116 [4]): Dose-dependent effect
- Activity (HCT-116 [5]): Dose-dependent effect
- inhibition in vivo at 5 mg/kg (HCT-116 [6]): 51.6%
- Activity_index (Mus musculus [7]): 0.95
- inhibition in vivo at 10 mg/kg (HCT-116 [8]): 37.8%
- Activity_index (Mus musculus [9]): 0.48
- IC50 (LS180): 17.4 µM
- Activity_index (Mus musculus [10]): 0.37
- Activity (HCT-116 [11]): Dose-dependent effect
- Activity (HCT-116 [12]): Dose-dependent effect
- Activity (HCT-116 [13]): Dose-dependent effect
